Source: publication PMC2895357 (Journal of Medicinal Chemistry, 2010)

Tests used:
[1] = biological target: T1, TbGalE (UDP-galactose 4′-epimerase from Trypanosoma brucei) (Trypanosoma brucei, UniProt Q8T8E9); assay: TbGalE inhibition assay; type: biochemical; conditions: for Hill Slope: TbGalE potency curve
T1 sequence (Q8T8E9 1-395): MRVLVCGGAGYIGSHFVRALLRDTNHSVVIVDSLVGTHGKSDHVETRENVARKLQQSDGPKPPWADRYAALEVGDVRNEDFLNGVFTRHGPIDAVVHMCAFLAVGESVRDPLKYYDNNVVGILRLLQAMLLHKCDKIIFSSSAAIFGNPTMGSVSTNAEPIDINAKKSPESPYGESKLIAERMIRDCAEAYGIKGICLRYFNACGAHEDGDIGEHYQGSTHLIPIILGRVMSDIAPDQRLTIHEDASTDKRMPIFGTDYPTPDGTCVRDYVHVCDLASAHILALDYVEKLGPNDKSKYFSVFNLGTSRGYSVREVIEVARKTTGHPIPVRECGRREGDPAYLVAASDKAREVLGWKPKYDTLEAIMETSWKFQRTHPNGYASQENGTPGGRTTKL

[2] = Cytotoxicity assay against human MRC5 cells; type: cell-based; conditions: human, MRC5 cells
Trypanosoma cruzi = conditions: cited from earlier work
cultured T. brucei = type: cell-based, Trypanosoma brucei; conditions: whole-cell T. brucei, three days, Alamar Blue
human MRC5 cells = assay: Cytotoxicity assay against human MRC5 cells; type: cell-based; conditions: human MRC5 cells, three days, Alamar Blue

Compound | Hill Slope [1] | EC50 at 3 days [2] [µM] | also measured
O=C(O)c1ccccc1-c1ccccc1C(=O)Nc1ccc2c(c1)nc(O)c1ccccc12 [compound 1] | 1.8 ± 0.6 | > 50 | –
CCn1c2ccccc2c2cc(NC(=O)c3ccccc3-c3ccccc3C(=O)O)ccc21 [compound 2] | 1.2 ± 0.3 | > 50 | –
COC1C(OC(=O)c2ccc(C)[nH]2)C(O)C(Oc2ccc3c(O)c(NC(=O)c4ccc(O)c(CC=C(C)C)c4)c(=O)oc3c2Cl)OC1(C)C (stereo not drawn) [compound 3, clorobiocin] | 2.1 ± 0.5 | > 50 | inhibition of growth of Trypanosoma cruzi (Trypanosoma cruzi): inhibit the growth
O=C(O)c1ccccc1-c1ccccc1C(=O)Nc1ccc2c(c1)C(=O)c1ccccc1-2 [compound 5] | – | > 50 | –
O=C(O)c1ccccc1-c1ccccc1C(=O)Nc1ccc2c(c1)Cc1cc(F)ccc1-2 [compound 10] | – | > 50 | –
O=C(O)c1ccccc1-c1ccccc1C(=O)Nc1cc2c3ccccc3ccc2c2ccccc12 [compound 12] | – | > 50 | –
O=C(O)c1cc(Cl)ccc1-c1ccc(Cl)cc1C(=O)Nc1ccc2c(c1)Cc1ccccc1-2 [compound 13] | – | > 50 | –
O=C(O)c1cc(Cl)ccc1-c1ccc(Cl)cc1C(=O)NC1=CC2=C(CC1)c1c(Cl)cc(Cl)cc1C2 [compound 14] | – | – | Tb EC50 (cultured T. brucei): no activity; MRC5 EC50 (human MRC5 cells): demonstrated inhibition of MRC5 growth
CO[C@@H]1[C@@H](OC(N)=O)[C@@H](O)[C@H](Oc2ccc3c(O)c(NC(=O)c4ccc(O)c(CC=C(C)C)c4)c(=O)oc3c2C)OC1(C)C [novobiocin, reference compound] | – | – | inhibition at 10 µM ([1]; read-out: TbGalE inhibition at 10 μM): ≤ 50%; inhibition of growth of Trypanosoma cruzi (Trypanosoma cruzi): inhibits the growth
